For 17 compounds, EC50 results are on record in patent US8314256B2, “Modulators of ATP-binding cassette transporters” (Vertex Pharmaceuticals Incorporated, priority 2005, dated 2012).

The assay addresses T1, ΔF508-CFTR (Homo sapiens, UniProt P13569, DEL508-508).
T1 construct: expressed in transfected cells
Nature of the assay: Membrane potential optical assay of ΔF508-CFTR modulation (Table 3 EC50; the table does not name the assay). It counts as cell-based. The text has this:
Membrane Potential Optical Methods for Assaying ΔF508-CFTR Modulation Properties of Compounds
The optical membrane potential assay utilized voltage-sensitive FRET sensors described by Gonzalez and Tsien (See, Gonzalez, J. E. and R. Y. Tsien (1995) “Voltage sensing by fluorescence resonance energy transfer in single cells” Biophys J 69(4): 1272-80, and Gonzalez, J. E. and R. Y. Tsien (1997) “Improved indicators of cell membrane potential that use fluorescence resonance energy transfer” Chem Biol 4(4): 269-77) in combination with instrumentation for measuring fluorescence changes such as the Voltage/Ion Probe Reader (VIPR) (See, Gonzalez, J. E., K. Oades, et al. (1999) “Cell-based assays and instrumentation for screening ion-channel targets” Drug Discov Today 4(9): 431-439).
These voltage sensitive assays are based on the change in fluorescence resonant energy transfer (FRET) between the membrane-soluble, voltage-sensitive dye, DiSBAC2(3), and a fluorescent phospholipid, CC2-DMPE, which is attached to the outer leaflet of the plasma membrane and acts as a FRET donor. Changes in membrane potential (Vm) cause the negatively charged DiSBAC2(3) to redistribute across the plasma membrane and the amount of energy transfer from CC2-DMPE changes accordingly. The changes in fluorescence emission were monitored using VIPR II, which is an integrated liquid handler and fluorescent detector designed to conduct cell-based screens in 96- or 384-well microtiter plates.
Identification of Correction Compounds
To identify small molecules that correct the trafficking defect associated with ΔF508-CFTR; a single-addition HTS assay format was developed. The cells were incubated in serum-free medium for 16 hrs at 37° C. in the presence or absence (negative control) of test compound. As a positive control, cells plated in 384-well plates were incubated for 16 hrs at 27° C. to “temperature-correct” ΔF508-CFTR. The cells were subsequently rinsed 3× with Krebs Ringers solution and loaded with the voltage-sensitive dyes. To activate ΔF508-CFTR, 10 μM forskolin and the CFTR potentiator, genistein (20 μM), were added along with Cl^−-free medium to each well. The addition of Cl^−-free medium promoted Cl^− efflux in response to ΔF508-CFTR activation and the resulting membrane depolarization was optically monitored using the FRET-based voltage-sensor dyes.
Identification of Potentiator Compounds
To identify potentiators of ΔF508-CFTR, a double-addition HTS assay format was developed. During the first addition, a Cl^−-free medium with or without test compound was added to each well. After 22 sec, a second addition of Cl^−-free medium containing 2-10 μM forskolin was added to activate ΔF508-CFTR. The extracellular Cl^− concentration following both additions was 28 mM, which promoted Cl^− efflux in response to ΔF508-CFTR activation and the resulting membrane depolarization was optically monitored using the FRET-based voltage-sensor dyes. Solutions
NIH3T3 mouse fibroblasts stably expressing ΔF508-CFTR are used for optical measurements of membrane potential. The cells are maintained at 37° C. in 5% CO2 and 90% humidity in Dulbecco's modified Eagle's medium supplemented with 2 mM glutamine, 10% fetal bovine serum, 1×NEAA, […]-ME, 1× pen/strep, and 25 mM HEPES in 175 cm^2 culture flasks. For all optical assays, the cells were seeded at 30,000/well in 384-well matrigel-coated plates and cultured for 2 hrs at 37° C. before culturing at 27° C. for 24 hrs. for the potentiator assay. For the correction assays, the cells are cultured at 27° C. or 37° C. with and without compounds for 16-24 hours

SMILES strings stand for the structures.

T1 sequence (P13569 with tags, fused parts or gaps DEL508-508): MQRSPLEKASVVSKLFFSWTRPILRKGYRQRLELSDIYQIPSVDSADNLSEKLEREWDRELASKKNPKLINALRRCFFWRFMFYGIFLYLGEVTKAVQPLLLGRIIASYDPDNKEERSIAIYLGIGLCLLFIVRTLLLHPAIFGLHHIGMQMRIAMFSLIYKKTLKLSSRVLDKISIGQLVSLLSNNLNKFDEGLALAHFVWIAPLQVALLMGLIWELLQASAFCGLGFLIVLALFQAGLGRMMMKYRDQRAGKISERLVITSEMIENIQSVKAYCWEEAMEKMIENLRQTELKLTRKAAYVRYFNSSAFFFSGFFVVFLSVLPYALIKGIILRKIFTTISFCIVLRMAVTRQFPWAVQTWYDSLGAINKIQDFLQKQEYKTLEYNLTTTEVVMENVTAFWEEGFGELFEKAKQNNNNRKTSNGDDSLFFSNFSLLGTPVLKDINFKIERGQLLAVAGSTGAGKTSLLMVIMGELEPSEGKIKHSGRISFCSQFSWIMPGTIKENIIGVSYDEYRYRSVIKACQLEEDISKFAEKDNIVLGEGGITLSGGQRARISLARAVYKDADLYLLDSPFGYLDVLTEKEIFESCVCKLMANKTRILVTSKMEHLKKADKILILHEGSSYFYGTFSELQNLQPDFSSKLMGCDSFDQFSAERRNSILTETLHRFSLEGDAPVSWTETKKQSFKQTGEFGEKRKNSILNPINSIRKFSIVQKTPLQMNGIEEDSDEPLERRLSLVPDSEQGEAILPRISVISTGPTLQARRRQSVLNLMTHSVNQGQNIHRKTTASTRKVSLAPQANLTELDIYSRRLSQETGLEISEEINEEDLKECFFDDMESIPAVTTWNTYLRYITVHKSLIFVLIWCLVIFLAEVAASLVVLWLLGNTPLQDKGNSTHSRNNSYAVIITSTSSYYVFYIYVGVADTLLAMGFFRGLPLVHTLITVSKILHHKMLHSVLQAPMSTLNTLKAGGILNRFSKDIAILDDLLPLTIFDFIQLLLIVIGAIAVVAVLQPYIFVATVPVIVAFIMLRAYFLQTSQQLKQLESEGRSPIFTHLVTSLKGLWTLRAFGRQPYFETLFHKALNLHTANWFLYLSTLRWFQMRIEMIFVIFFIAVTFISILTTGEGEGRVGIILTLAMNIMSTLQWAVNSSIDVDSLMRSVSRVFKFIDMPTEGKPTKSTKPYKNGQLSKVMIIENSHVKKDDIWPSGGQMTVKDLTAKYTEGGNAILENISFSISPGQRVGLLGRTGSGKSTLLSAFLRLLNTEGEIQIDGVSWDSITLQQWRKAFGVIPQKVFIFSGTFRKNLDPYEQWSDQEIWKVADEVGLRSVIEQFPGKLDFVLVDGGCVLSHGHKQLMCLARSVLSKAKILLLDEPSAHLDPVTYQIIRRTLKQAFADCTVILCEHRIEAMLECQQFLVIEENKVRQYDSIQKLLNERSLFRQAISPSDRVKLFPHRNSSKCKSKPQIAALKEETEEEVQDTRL

For `O=C(NC(c1ccccc1)c1ccccc1)C(=O)c1c[nH]c2ccccc12` [Compound 1, N-Benzhydryl-2-(1H-indol-3-yl)-2-oxo-acetamide], the EC50 (as a rule, the concentration at which the effect is half-maximal) is less than 1000 nM.

With `O=C(NCCc1ccccc1)C(=O)c1c[nH]c2ccccc12` [Compound 2, 2-(1H-Indol-3-yl)-2-oxo-N-phenethyl-acetamide], the EC50 was less than 1000 nM.

Turning to `Cc1ccc(Cn2cc(SCCNC(=O)C(=O)c3c[nH]c4ccccc34)c3ccccc32)cc1` [Compound 3], the EC50 is less than 1000 nM.

As to `O=C(NC(CN1CCOCC1)c1ccccc1)C(=O)c1c[nH]c2ccccc12` (centres unmarked) [Compound 4], the EC50 is more than 5000 nM.

`O=C(C(=O)N(Cc1ccccc1)Cc1ccccc1)c1c[nH]c2ccccc12` [Compound 5, N,N-Dibenzyl-2-(1H-indol-3-yl)-2-oxo-acetamide]: the EC50 is less than 1000 nM.

For the compound `O=C(NCc1ccccc1)C(=O)c1c[nH]c2ccccc12` [Compound 6], the EC50 was less than 1000 nM.

`COc1ccccc1N1CCN(C(=O)C(=O)c2c[nH]c3ccc(Br)cc23)CC1` [Compound 7]: the EC50 fell in the range of 1000 to 5000 nM.

For `CC(=O)Nc1ccc(OCCCNC(=O)C(=O)c2c[nH]c3ccc(Br)cc23)cc1` [Compound 8], the EC50 was 1000 to 5000 nM.

Turning to `Cn1cc(C(=O)C(=O)NCc2ccccc2)c2ccccc21` [Compound 9], the EC50 is more than 5000 nM.

For the compound `Cn1cc(C(=O)C(=O)NCCc2ccccc2)c2ccccc21` [Compound 10, 2-(1-Methyl-1H-indol-3-yl)-2-oxo-N-phenethyl-acetamide], the EC50 is more than 5000 nM.

`Cn1cc(C(=O)C(=O)NC(c2ccccc2)c2ccccc2)c2ccccc21` [Compound 12, N-Benzhydryl-2-(1-methyl-1H-indol-3-yl)-2-oxo-acetamide]: the EC50 is more than 5000 nM.

For `COc1ccc(CCNC(=O)C(=O)c2c[nH]c3ccc(Br)cc23)cc1` [Compound 13], the EC50 was in the range of 1000 to 5000 nM.

As for `CN(Cc1ccccc1)C(=O)C(=O)c1c[nH]c2ccccc12` [Compound 14, N-Benzyl-2-(1H-indol-3-yl)-N-methyl-2-oxo-acetamide], the EC50 is more than 5000 nM.

For the compound `Cn1cc(C(=O)C(=O)N(Cc2ccccc2)Cc2ccccc2)c2ccccc21` [Compound 15, N,N-Dibenzyl-2-(1-methyl-1H-indol-3-yl)-2-oxo-acetamide], the EC50 was in the range of 1000 to 5000 nM.

Take `O=C(NCCc1ccccc1)C(=O)c1c[nH]c2ccc(Br)cc12` [Compound 16]: the EC50 was less than 1000 nM.

Take `O=C(NC(CSCc1ccccc1)CSCc1ccccc1)C(=O)c1c[nH]c2ccccc12` [Compound 17]: the EC50 fell in the range of 1000 to 5000 nM.

`O=C(NCC(c1ccccc1)c1ccccc1)C(=O)c1c[nH]c2ccccc12` [Compound 18, N-(2,2-Diphenylethyl)-2-(1H-indol-3-yl)-2-oxo-acetamide]: the EC50 is less than 1000 nM.
